These results are taken from US10350188B2, “Use of Neu1 sialidase inhibitors in the treatment of cancer” (priority 2011, dated 2019).

For test [1], the target named is Neu1 sialidase (Mus musculus, UniProt O35657). As to the kind of experiment: LPS-induced Neu1 sialidase activity in live BMA macrophage cells (4-MUNANA). To be noted: LPS-induced Neu1 sialidase activity, live BMA macrophage cells. On the set-up: endogenous in cells; host or cells: BMA macrophage cells. It is filed as cell-based. The method, then: TLR-expressing BMA macrophage cells were grown on 12 mm circular glass slides in culture media containing DMEM supplemented with 10% fetal calf serum. […] Fluorescent images were taken after 2-3 minutes using epi-fluorescent microscopy (Zeiss Imager M2, 40× objective).
This recently developed assay was used to detect sialidase activity on the surface of viable cells. […] The inhibitory potency of a series of amide-linked C9 modified DANA (2-deoxy-2,3-dehydro-D-N-acetylneuraminic add) analogues on lipopolysaccharide (LPS)-induced Neu1 sialidase activity was assessed in live BMA macrophage cells.

In test [2] the test system is MiaPaCa-2 cells. As to the kind of experiment: Cell viability of MiaPaCa-2 pancreatic cancer cells in culture (MTT or WST-1, 72 hrs). It is filed as cell-based, human. The following applies: for LD50 MiaPaCa-2: oseltamivir phosphate analogues (TD), WST-1, 72 hrs; for Chemo-drug LD50 / Chemo-drug sensitivity with oseltamivir phosphate (fold increase): MiaPaCa-2; for Chemo-drug LD50: MTT, 72 hrs. Background: Tetrazolium dyes change colour on reduction, which living cells bring about.

Test [3] has as its system PANC-1 cells. Description: Cell viability of PANC-1 pancreatic cancer cells in culture (MTT or WST-1, 72 hrs). The following applies: for LD50 PANC-1: oseltamivir phosphate analogues (TD), WST-1, 72 hrs; for Chemo-drug LD50 / Chemo-drug sensitivity with oseltamivir phosphate (fold increase): PANC-1; for Chemo-drug LD50: MTT, 72 hrs. It counts as cell-based, human.
For test [4], the system named is BxPC-3 cells. As to the kind of experiment: Cell viability of BxPC-3 pancreatic cancer cells in culture (MTT or WST-1, 72 hrs). It is filed as cell-based, human. To be noted: BxPC-3; for Chemo-drug LD50: MTT, 72 hrs.
Test [5] relates to MiaPaCa-2-eGFP pancreatic cancer cells implanted in RAG2/Cγ double mutant Balbc xenograft mice. Description: MiaPaCa-2-eGFP pancreatic cancer xenograft in RAG2/Cγ double mutant Balbc mice. It is filed as in vivo, mouse. The following applies: for Liver metastasis percent inhibition: vs untreated day 51. As to the method: Tumour measurements were taken twice a week.
MiaPaCa-2-eGFP pancreatic cancer cells at 1.5×10^6 in 0.2 mL were implanted subcutaneously in the right back flank of these mice. Each mouse in the study was identified by an ear punch number. Twice a week each mouse following implantation of the cancer cells was monitored for tumour volume growth (length and width) at the site of implantation, body weights, and body condition scoring. Scoring the body condition of rodents is a non-invasive method for assessing health and establishing endpoints for adults where body weight is not a viable monitoring tool, such as with tumour models. Body condition scores (BC) range from 1(emaciation) to 5 (obesity). An anticipated BCS of 2—under conditioned—or lower, requires justification in the protocol. Scores are determined by frequent visual and hands-on examination of each animal. The hands-on evaluation is done by gently holding the mouse by the base of the tail and passing a finger over the sacroiliac bones. The findings are matched to the descriptions and diagrams of BC ranges to determine a score. Scores are documented for each animal.

Setting [6] is: co-treatment oseltamivir phosphate 730 μM.
The mark [7] stands for this setting: co-treatment oseltamivir phosphate 1460 μM.
Setting [8] is: chemo-drug + oseltamivir phosphate 10 mg/kg daily, Altima day 70, Abraxane day […].
Setting [9] is: chemo-drug alone, Altima 100 mg/kg day 70, Abraxane 200 mg/kg day 87.
Setting [10] is: day 48, chemo-drug (alimta 100, abraxane 200 mg/kg) + oseltamivir phosphate 10 mg/kg daily i.p.
The mark [11] stands for this setting: day 48, chemo-drug alone (alimta 100 mg/kg, abraxane 200 mg/kg i.p.).
Where [12] appears, read: day 63, chemo-drug (alimta 100, abraxane 200 mg/kg) + oseltamivir phosphate 10 mg/kg daily.
Setting [13] is: day 63, chemo-drug alone (alimta 100 mg/kg, abraxane 200 mg/kg).
[14] abbreviates: day 62, tamoxifen 0.1 mg/kg alone or with oseltamivir phosphate 100 mg/kg daily.
Setting [15] is: day 66, tamoxifen 0.1 mg/kg alone or with oseltamivir phosphate 100 mg/kg daily.

Molecules are shown by their SMILES.

Turning to `CC(=O)N[C@@H]1C(O)C=C(C(=O)O)OC1[C@@H](O)[C@@H](O)CNC(=O)C1CCCCC1` (stereo partly shown) [B3], in test [1], the midpoint of inhibition, the IC50, lay at 0.0039 µM.

Consider `CC(=O)N[C@H]1[C@@H]2OC(C)(C)O[C@@H]2C(C(=O)[O-])=C[C@H]1O.[Na+]`, for which, in test [2], the “LD50 MiaPaCa-2” value was 2.8 µM. The “LD50 PANC-1” value in test [3] is 349 µM.

`CC(=O)N[C@@H]1/C(=N/O)C=C(C(=O)[O-])[C@H]2OC(C)(C)O[C@H]21.[Na+]` [A5, Sodium; 7-acetylamino-6-hydroxyimino-2,2-dimethyl-3a,6,7,7a-tetrahydro-benzo[1,3]dioxole-4-carboxylate]: the “LD50 MiaPaCa-2” value in test [2] came out at 24 µM. The “LD50 PANC-1” value in test [3] was 3 µM.

`CCCCC(=O)NC[C@H](O)[C@H](O)C1OC(C(=O)O)=CC(O)[C@H]1NC(C)=O` (stereo partly shown) [B5]: the IC50 (in general, the concentration that gives 50% inhibition) in test [1] was 1.45 µM.

Compound `CC(=O)N[C@@H]1C(O)C=C(C(=O)O)OC1[C@@H](O)[C@@H](O)CNC(=O)C(C)(C)C` (stereo partly shown) [B10] showed an IC50 in test [1] of 411 µM.

Regarding `O=c1[nH]cc(F)c(=O)[nH]1` [5-fluoruracil, Fluorouracil], the “Chemo-drug LD50” value in test [4] (setting [6]) was 0.78 µM; in test [4] (setting [7]) it was 0.078 µM; in test [4] (oseltamivir phosphate 0 μM) it was 12.5 µM; in test [2] (setting [6]) it was 0.6 µM; in test [2] (setting [7]), 0.078 µM; in test [2] (oseltamivir phosphate 0 μM), 2.20 µM. The “Chemo-drug LD50” value in test [3] (setting [6]) came to 0.8 µM; in test [3] (setting [7]) it was 0.078 µM; in test [3] (oseltamivir phosphate 0 μM), 3.1 µM. Besides, the “Chemo-drug sensitivity with oseltamivir phosphate (fold increase)” value in test [4] (oseltamivir phosphate 730 μM) was 16 fold increase; in test [4] (oseltamivir phosphate 1460 μM), 160 fold increase; in test [2] (oseltamivir phosphate 730 μM), 4 fold increase; in test [2] (oseltamivir phosphate 1460 μM), 28 fold increase; in test [3] (oseltamivir phosphate 730 μM), 4 fold increase; in test [3] (oseltamivir phosphate 1460 μM), 40 fold increase.

Regarding `CCOC1C(C(=O)[O-])=C[C@@H](O)[C@@H](NC(C)=O)[C@@H]1O.[Na+]` (stereo partly shown) [A1, Sodium; 4-acetylamino-6-ethoxy-3,5-dihydroxy-cyclohex-1-enecarboxylate], the “LD50 MiaPaCa-2” value in test [2] was 132 µM. For the same compound, the “LD50 PANC-1” value in test [3] is 848 µM.

Compound `CC(=O)N[C@@H]1C(O)C=C(C(=O)O)OC1[C@@H](O)[C@@H](O)CNC(=O)C1CC1` (stereo partly shown) [B9] gave an IC50 in test [1] of 1120 µM.

`CC(=O)NC[C@H](O)[C@H](O)C1OC(C(=O)O)=CC(O)[C@H]1NC(C)=O` (stereo partly shown) [B4] gave an IC50 in test [1] of 2.98 µM.

For the compound `CCCC(=O)NC[C@H](O)[C@H](O)C1OC(C(=O)O)=CC(O)[C@H]1NC(C)=O` (stereo partly shown) [B1], the IC50 in test [1] is 0.0138 µM.

The compound `CC(=O)N[C@@H]1C(O)C=C(C(=O)O)OC1[C@@H](O)[C@@H](O)CNC(=O)C1CCCC1` (stereo partly shown) [B6] had an IC50 in test [1] of 76.6 µM.

Consider `CC(=O)N[C@@H]1CC[C@@](O)(C(=O)[O-])[C@H]2OC(C)(C)O[C@@H]12.[Na+]`, for which, in test [2], the “LD50 MiaPaCa-2” value was found to be 2.1 µM. In addition, in test [3], the “LD50 PANC-1” value is >1000 µM.

`CC(=O)N[C@@H]1C(O)C=C(C(=O)O)OC1[C@@H](O)[C@@H](O)CNC(=O)C(C)C` (stereo partly shown) [B7] had an IC50 in test [1] of 683 µM.

`CCC(CC)O[C@@H]1C=C(C(=O)[O-])[C@H]2OC(C)(C)O[C@H]2[C@H]1NC(C)=O.[Na+]` [A6, Sodium; 7-acetylamino-6-(1-ethyl-propoxy)-2,2-dimethyl-3a,6,7,7a-tetrahydro-benzo[1,3]dioxole-4-carboxylate]: the “LD50 MiaPaCa-2” value in test [2] is >2000 µM. The “LD50 PANC-1” value in test [3] was >2000 µM.

The compound `CCC(C)C(=O)NC[C@H](O)[C@H](O)C1OC(C(=O)O)=CC(O)[C@H]1NC(C)=O` (stereo partly shown) [B2] had an IC50 in test [1] of 29.7 µM.

Regarding `CCC(CC)C(=O)NC[C@H](O)[C@H](O)C1OC(C(=O)O)=CC(O)[C@H]1NC(C)=O` (stereo partly shown) [B8], in test [1], the IC50 is 1050 µM.

Turning to `CC(=O)N[C@H]1[C@H](O)C=C(C(=O)[O-])C[C@@H]1N.[Na+]` [A2, Sodium; 4-acetylamino-5-amino-3-hydroxy-cyclohex-1-enecarboxylate], the “LD50 MiaPaCa-2” value in test [2] was determined as 1.97 µM. Also, in test [3], the “LD50 PANC-1” value worked out at 0.01 µM.

With `Nc1nc2[nH]cc(CCc3ccc(C(=O)N[C@@H](CCC(=O)O)C(=O)O)cc3)c2c(=O)[nH]1` [alimta, Pemetrexed], the “Survival of tumour bearing mice” value in test [5] (chemo-drug (Alimta 100, Abraxane 200 mg/kg) + oseltamivir phosphate 10 mg/kg daily, untreated control day 51) is 70 days; in test [5] (chemo-drug monotherapy (Alimta 100 mg/kg, Abraxane 200 mg/kg), untreated control day 51), 70 days. In addition, the “Liver Metastasis (avg no. nodules)” value in test [5] (chemo-drug + oseltamivir phosphate 10 mg/kg daily, Altima 100 mg/kg day 70, Abraxane 200 mg/kg day […]) was found to be 3; in test [5] (setting [9]) it was 5. The results for the “Metastases (size, mm)” value in test [5] (setting [8]) and in test [5] (setting [9]) were 0.2-0.5 mm and 0.2-1.0 mm, respectively. Moreover, the figures for the “Liver metastasis percent inhibition” value in test [5] (setting [8]) and in test [5] (setting [9]) were 91% and 85%, respectively. Also, the “% Inhibition To untreated” value in test [5] (setting [10]) came to 77%; in test [5] (day 48, chemo-drug (alimta 100, abraxane 200 mg/kg) + oseltamivir phosphate 10 mg/kg daily i.p., listed as Almita) it was 77%; in test [5] (setting [11]), 72%; in test [5] (setting [12]) it was 3%; in test [5] (setting [13]), 40%. In addition, the Tumour volume in test [5] (setting [10]) was determined as 189 mm^3; in test [5] (setting [11]), 225 mm^3; in test [5] (setting [12]) it was 787 mm^3; in test [5] (setting [13]), 482 mm^3.

`CC/C(=C(\c1ccccc1)c1ccc(OCCN(C)C)cc1)c1ccccc1` [tamoxifen, Tamoxifen]: the “Chemo-drug LD50” value stood at 3 µM in test [4] (setting [6]); 0.078 µM in test [4] (setting [7]); 9 µM in test [4] (oseltamivir phosphate 0 μM); 0.8 µM in test [2] (setting [6]); 0.078 µM in test [2] (setting [7]); 7.0 µM in test [2] (oseltamivir phosphate 0 μM). In addition, the figures for the “Chemo-drug LD50” value in test [3] (setting [6]), in test [3] (setting [7]) and in test [3] (oseltamivir phosphate 0 μM) were 0.8 µM, 0.078 µM and 12.5 µM, respectively. The “Chemo-drug sensitivity with oseltamivir phosphate (fold increase)” value in test [4] (oseltamivir phosphate 730 μM) came to 3 fold increase; in test [4] (oseltamivir phosphate 1460 μM), 115 fold increase; in test [2] (oseltamivir phosphate 730 μM) it was 9 fold increase; in test [2] (oseltamivir phosphate 1460 μM), 90 fold increase; in test [3] (oseltamivir phosphate 730 μM), 16 fold increase; in test [3] (oseltamivir phosphate 1460 μM) it was 160 fold increase. The “% Inhibition To untreated” value in test [5] (day 59, tamoxifen 0.1 mg/kg alone or with oseltamivir phosphate 100 mg/kg daily) is listed as 57%; in test [5] (setting [14]), 21%; in test [5] (setting [15]), 0%. Also, the Tumour volume was 960 ± 208 (4) mm^3 in test [5] (day 59, tamoxifen 0.1 mg/kg i.p. alone or with oseltamivir phosphate 100 mg/kg i.p. daily); 1738 ± 328 (4) mm^3 in test [5] (setting [14]); 2650 ± 360 (3) mm^3 in test [5] (setting [15]). Further, the “Survival of tumour bearing mice” value in test [5] (tamoxifen 0.1 mg/kg alone or with oseltamivir phosphate 100 mg/kg daily, untreated control day 60) was found to be 66 days.
